Experimental data published in patent US10487045B2, “Adamantane derivative and use thereof” (TOHOKU UNIVERSITY, priority 2016, dated 2019).

Key:
APP23 mice [1] = experiment: Y-maze method in Alzheimer's disease model mice; format: in vivo; settings: APP23 mice 12 months old, 1 mg/kg orally once a day for two months
Description: To Alzheimer's disease model mice (APP23 mice, Sturchler-Pierrat et al., Proc. Natl. Acad. Sci. U.S.A. 1997, 94, 13287-13292)(12 months old), TP-014 (1 mg/kg) was orally administered once a day for two months (chronic treatment). […] FIGS. 4a-d show the results of behavior analysis. FIG. 4a and FIG. 4b show attentional function analyzed on WT mice (C57BL/6J, Japan SLC) and APP23 mice (n=5 per group) by an ordinary Y-maze method. […] The Y-maze method is a method of allowing mice to freely walk on three arms for 8 minutes. The arms will be provisionally designated as A, B, C, respectively. A mouse positioned on A will move to B or C (arm). […] The arms to which a mouse moved are recorded in chronological order and the number of times a mouse moves to each of the arms within a predetermined time is counted and determined as “total arm entries”. Of them, the number of the right-answer cases (the case where a mouse consecutively chooses three different arms) was counted and determined as the number of alternating behaviors (“No. of alternation”). The ratio of “No. of alternation” to the number obtained by subtracting 2 from the “total arm entries” is expressed as alternation (%) and used as the normal alternate behavior index (spatial working memory correct answer ratio). […]

ob/ob = experiment: Hypoglycemic effect, blood glucose level by assay kit; format: in vivo; settings: 1 mg/kg chronic treatment for 4 weeks; effect on and after 3 weeks; vs ob/ob (saline)
Description: A hypoglycemic effect by TP-014 was checked by measuring the blood glucose level by an assay kit (manufactured by Technicon International co). The measurement was carried out for 4 weeks. […] As a control, tolbutamide was used. Kir6.2 channel binds to SUR1 ([…]) on the cell membrane to form a channel. Action mechanism is considered due to Kir6.2 channel inhibitory action. Tolbutamide binds to SUR1 to inhibit Kir6.2 channel.

APP23 mice [2] = experiment: Aβ aggregation in brain slices, staining with 6E10 and thioflavin; format: in vivo; settings: APP23 mice (14 months old), chronic treatment, brain slice sections
Text: The hypothesis that amyloid-β (Aβ) is a cause of Alzheimer's disease has now still important. AP aggregation, which occurs in APP23 mice (14 months old) was confirmed by immunostaining. The brains of a WT (control mouse) and APP23 mouse were cut into slice sections of 50 micrometers in thickness. The slice sections were stained with 6E10 (Aβ antibody, manufactured by Abeam) and thioflavin. The conditions other than the above were the same as in the ordinary immunostaining method. […] In contrast, aggregation was not virtually observed in the hippocampus (CA1). Aβ aggregation was inhibited by TP-014 chronic treatment.

Kir6.2 channel = target: T1, Kir6.2 channel (Mus musculus, UniProt Q61743); experiment: Calcium imaging method (Fura2) in Kir6.2 channel-overexpressing cells; format: cell-based
T1 construct: expressed in transfected cells; host or cells: Neuro2A (N2A) cells, transient transfection with pcDNA3.1-Kir6.2 (gift of Dr. Toru Ishizuka, Tohoku University)
T1 sequence (Q61743 1-390): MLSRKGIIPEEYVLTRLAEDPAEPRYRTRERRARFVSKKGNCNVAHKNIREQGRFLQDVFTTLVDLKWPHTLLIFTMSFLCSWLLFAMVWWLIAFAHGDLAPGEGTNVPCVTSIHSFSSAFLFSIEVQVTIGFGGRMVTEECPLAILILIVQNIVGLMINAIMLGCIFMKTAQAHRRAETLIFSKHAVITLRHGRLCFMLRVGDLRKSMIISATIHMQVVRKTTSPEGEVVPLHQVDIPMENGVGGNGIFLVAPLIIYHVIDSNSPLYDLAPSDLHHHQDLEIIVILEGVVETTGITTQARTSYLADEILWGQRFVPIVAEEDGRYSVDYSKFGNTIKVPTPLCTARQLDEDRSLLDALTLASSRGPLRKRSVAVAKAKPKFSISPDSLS
Description: Using the same Kir6.2 channel-overexpressing cells as in Test Example 1, the amount of calcium that flows into cells from outside the cells by TP-014 treatment was measured by a calcium imaging method. The calcium imaging method is a method of measuring the amount of calcium based on the intensity of fluorescence of cultured nerve cells, which are treated in a culture solution containing a calcium fluorescent dye (Fura2, manufactured by Dojindo Laboratories) in a concentration of 4 μM. Imaging was carried out by an imaging apparatus (LAMBDA10-2, manufactured by SUTTER INSTRUMENT) in accordance with the manual attached to the apparatus.

Kir6.1 defective mice = experiment: Tail-suspension and forced swim methods in Kir6.1 defective mice (hetero-type); format: in vivo; settings: chronic treatment
Description: OBX mice were originally established as depression model mice although a deterioration of cognitive function was observed. Depression was analyzed by a tail-suspension method (a) and a forced swim method (b). The tail-suspension method is a method of pinching the tail of a mouse and hanging the mouse upside down. If the mouse hung has depression, immobility time is long. Since a normal mouse moves even if it is hung, the immobility time is short. In the forced swim method, a mouse is forced to swim in water in a beaker. A mouse having depression neither swims nor moves (just floating). Thus the immobility time is measured. Immobility time was long in OBX mice both in the tail-suspension method (a) and the forced swim method (b). The immobility time of a TP-014 chronic administration group (2 weeks, in the same administration method as that previously mentioned) was improved.
Immobility time of Kir6.1 defective mice (hetero-type, n=5 per group) was measured by the tail-suspension method (a) and the forced swim method (b) in the same manner as in FIGS. 11a and 11b. The hetero-type mice are the mice in which the expression level of Kir6.1 channel is half (the homo type mice develops arrhythmia after birth and dies) in contrast to the homo type mice (complete defective mice). […] The chronic treatment with TP-014 was not effective. […]

amount of calcium within cells (Kir6.2 channel; TP-014 1-100 nM, 4 minutes after treatment, Kir6.2 channel-overexpressing cells): significantly increased
Compound: O=C(N[C@@H](c1ccccc1)[C@H]1[C@H]2C[C@@H]3C[C@](Cl)(C2)C[C@@]1(OC(=O)C(F)(F)F)C3)C(F)(F)F [TP-014, (1S,2R,3S,5S,7S)-5-chloro-2-((R)-phenyl(2,2,2-trifluoroacetamido)methyl)adamantan-1-yl 2,2,2-trifluoroacetate]
attentional function (alternation, Y-maze) (APP23 mice [1]): significant attentional function improvement effect | blood glucose level (ob/ob): significantly decreased | Aβ aggregation (APP23 mice [2]): inhibited | calcium concentration increasing effect compared with memantine (Kir6.2 channel; TP-014 1-100 nM vs memantine 100 nM): larger calcium concentration increasing effect than memantine | depression-like symptom, immobility time in Kir6.1 defective mice (Kir6.1 defective mice): not effective
